This is an account of results in US20140135310A1, “SULPHONAMIDE DERIVATIVES OF ALICYCLIC AMINES FOR THE TREATMENT OF CENTRAL NERVOUS SYSTEM DISEASES” (Adamed Sp. z o.o., priority 2011, published 2014).

Test [1] concerns the target T1, 5-HT1A receptor (rat hippocampus) (Rattus norvegicus, UniProt P19327).
T1 construct: hippocampus; from tissue; host or cells: rat hippocampus
T1 sequence (P19327 1-422): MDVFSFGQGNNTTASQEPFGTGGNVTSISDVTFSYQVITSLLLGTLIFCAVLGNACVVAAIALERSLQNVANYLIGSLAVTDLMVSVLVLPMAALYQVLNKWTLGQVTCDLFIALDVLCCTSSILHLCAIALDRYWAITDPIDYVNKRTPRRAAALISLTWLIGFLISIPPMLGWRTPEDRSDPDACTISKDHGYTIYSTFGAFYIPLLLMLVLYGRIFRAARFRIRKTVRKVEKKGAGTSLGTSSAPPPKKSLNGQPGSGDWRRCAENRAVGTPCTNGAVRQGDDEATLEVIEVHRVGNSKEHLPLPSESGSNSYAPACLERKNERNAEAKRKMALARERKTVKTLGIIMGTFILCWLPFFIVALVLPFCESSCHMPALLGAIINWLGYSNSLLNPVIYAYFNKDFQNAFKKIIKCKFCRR
The experiment in a line: Radioligand binding assay, serotoninergic 5-HT1A receptors. The settings on record: binding assay result in %, Table 5a.

A further test has as its target T2, 5-HT2A receptor (Homo sapiens, UniProt P28223).
T2 construct: purchased PerkinElmer
The experiment in a line: Radioligand binding assay, serotoninergic 5-HT2A receptors. To be noted: binding assay result in %, Table 5a. Put shortly:
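Competition curves from scintillation-counted specific binding (total minus binding with excess unlabelled ligand) were Hill-fitted to give IC50, converted to Ki via Cheng-Prusoff using Scatchard-derived Kd.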

For the next test, the target named is T3, 5-HT7 receptor (Homo sapiens, UniProt P34969).
T3 construct: purchased PerkinElmer
Briefly: Radioligand binding assay, serotoninergic 5-HT7 receptors. The settings on record: binding assay result in %, Table 5a. Put shortly: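 Ki values used the Cheng–Prusoff equation, with KD from Scatchard analysis, applied to IC50 from Hill fits of human 5-HT7 radioligand competition curves. Bound radioligand was counted by scintillation, and excess unlabelled ligand set the non-specific binding.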

Test [2] deals with dopaminergic receptors D2 (Homo sapiens, UniProt P14416). Briefly: Radioligand binding assay, dopaminergic D2 receptors. To be noted: binding assay, test compound 1×10^−6 M. A digest of the protocol:
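Values derive from competition curves: percent inhibition of control specific binding was fitted by Hill non-linear regression for IC50, and Ki calculated with Cheng–Prusoff from radioligand concentration and KD (Scatchard). Bound ligand was detected by scintillation counting.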

Test [3] has as its target dopaminergic receptors D3 (Homo sapiens, UniProt P35462). Briefly: Radioligand binding assay, dopaminergic D3 receptors. To be noted: test compound 1×10^−6 M. Put shortly:
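Scintillation read-out. Specific = total − nonspecific (excess cold ligand). Data as % of control specific binding / % inhibition; IC50 by Hill fit; Ki = IC50/(1+L/KD), KD from Scatchard plot.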

In test [4] the target is T4, serotonin transporter (SERT) (Homo sapiens, UniProt P31645).
T4 construct: expressed in transfected cells; host or cells: CHO cells
The experiment in a line: Radioligand binding assay, serotonin transporter (SERT). To be noted: binding assay, test compound 1×10^−6 M. Put shortly:
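Values are derived from competition curves fitted by the Hill equation to give IC50, then converted to Ki by Cheng-Prusoff with radioligand Kd from Scatchard analysis. Specific binding equals total minus non-specific (excess cold ligand), counted by scintillation, and is also expressed as percent inhibition of control.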

Test [5] deals with α1 adrenergic receptors (rat cerebral cortex). The experiment in a line: Radioligand binding assay, adrenergic α1 receptors. The settings on record: test compound 1×10^−6 M. The text has this:
The specific ligand binding to the receptors is defined as the difference between the total binding and the non-specific binding determined in the presence of the excess of unlabelled ligand.
The results are expressed as a percent of control specific binding ((measured specific binding/control specific binding)×100) and as a percent inhibition of control specific binding (100−((measured specific binding/control specific binding)×100)) obtained in the presence of the test compounds. The specific ligand binding to the receptors is defined as the difference between the total binding and the nonspecific binding determined in the presence of an excess of unlabelled ligand. Scintillation counting was the method of detection of ligand binding. The IC50 values (concentration causing a half-maximal inhibition of control specific binding) were determined by non-linear regression analysis of the competition curves generated with mean replicate values using Hill equation curve fitting (Y=D+[(A−D)/(1+(C/C50)nH)], where Y=specific binding, D=minimum specific binding, A=maximum specific binding, C=compound concentration, C50=IC50, and nH=slope factor). […] The inhibition constants (Ki) were calculated using the Cheng Prusoff equation (Ki=IC50/(1+(L/KD)), where L=concentration of radioligand in the assay, and KD=affinity of the radioligand for the receptor). A scatchard plot was used to determine the Kd.

A further test concerns the target T5, 5-HT6 receptor (Homo sapiens, UniProt P50406).
T5 construct: purchased PerkinElmer
Briefly: Radioligand binding assay, serotoninergic 5-HT6 receptors. To be noted: binding assay result in %, Table 5a. Put shortly: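 Values are Ki from Cheng–Prusoff, taking IC50 from Hill nonlinear regression of competition curves and KD from a Scatchard plot. Specific binding was total minus binding with excess unlabelled ligand. Radioligand displacement was detected by scintillation counting, and data were also reported as percent of control specific binding.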

T5 sequence (P50406 whole entry): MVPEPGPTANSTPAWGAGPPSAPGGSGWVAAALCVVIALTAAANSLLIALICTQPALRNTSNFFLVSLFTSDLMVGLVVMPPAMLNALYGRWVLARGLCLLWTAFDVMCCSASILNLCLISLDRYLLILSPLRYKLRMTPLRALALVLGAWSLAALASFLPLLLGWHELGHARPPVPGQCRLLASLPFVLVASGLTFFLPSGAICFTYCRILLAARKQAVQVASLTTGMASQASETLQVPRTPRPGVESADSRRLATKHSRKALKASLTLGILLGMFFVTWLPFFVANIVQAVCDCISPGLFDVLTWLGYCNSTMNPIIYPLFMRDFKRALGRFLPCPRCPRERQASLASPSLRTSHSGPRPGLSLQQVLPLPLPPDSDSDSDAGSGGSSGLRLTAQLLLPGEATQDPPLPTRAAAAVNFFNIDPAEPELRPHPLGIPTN
Chain of dopaminergic receptors D2 (P14416 whole entry): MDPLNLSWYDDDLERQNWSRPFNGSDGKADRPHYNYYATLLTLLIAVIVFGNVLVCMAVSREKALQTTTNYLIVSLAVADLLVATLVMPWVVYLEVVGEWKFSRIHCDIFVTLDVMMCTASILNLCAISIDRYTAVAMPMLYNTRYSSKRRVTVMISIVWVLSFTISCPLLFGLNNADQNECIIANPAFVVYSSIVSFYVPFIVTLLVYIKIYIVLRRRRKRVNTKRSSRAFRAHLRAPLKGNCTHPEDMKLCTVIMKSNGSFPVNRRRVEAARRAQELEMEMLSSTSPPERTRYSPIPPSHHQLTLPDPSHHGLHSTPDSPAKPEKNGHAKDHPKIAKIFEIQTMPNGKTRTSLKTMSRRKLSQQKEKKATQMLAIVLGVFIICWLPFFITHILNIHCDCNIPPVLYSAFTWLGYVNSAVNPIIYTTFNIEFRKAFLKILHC
T4 sequence (P31645 whole entry): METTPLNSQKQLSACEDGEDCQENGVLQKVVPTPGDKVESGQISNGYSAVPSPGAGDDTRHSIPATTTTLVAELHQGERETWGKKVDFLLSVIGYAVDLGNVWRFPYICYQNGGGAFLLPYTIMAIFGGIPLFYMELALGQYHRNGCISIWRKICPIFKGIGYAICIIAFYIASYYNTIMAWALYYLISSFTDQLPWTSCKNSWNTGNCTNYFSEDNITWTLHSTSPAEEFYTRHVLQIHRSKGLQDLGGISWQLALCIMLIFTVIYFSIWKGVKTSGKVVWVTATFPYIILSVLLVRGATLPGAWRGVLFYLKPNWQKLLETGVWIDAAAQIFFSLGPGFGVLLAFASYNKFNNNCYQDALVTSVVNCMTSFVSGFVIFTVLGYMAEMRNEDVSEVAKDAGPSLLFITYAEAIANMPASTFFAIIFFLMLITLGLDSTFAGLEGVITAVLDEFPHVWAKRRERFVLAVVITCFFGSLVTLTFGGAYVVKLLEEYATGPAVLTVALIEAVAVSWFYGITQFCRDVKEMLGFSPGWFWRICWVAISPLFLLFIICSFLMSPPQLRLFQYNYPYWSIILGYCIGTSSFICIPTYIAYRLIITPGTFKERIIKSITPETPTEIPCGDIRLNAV
T3 sequence (P34969 whole entry): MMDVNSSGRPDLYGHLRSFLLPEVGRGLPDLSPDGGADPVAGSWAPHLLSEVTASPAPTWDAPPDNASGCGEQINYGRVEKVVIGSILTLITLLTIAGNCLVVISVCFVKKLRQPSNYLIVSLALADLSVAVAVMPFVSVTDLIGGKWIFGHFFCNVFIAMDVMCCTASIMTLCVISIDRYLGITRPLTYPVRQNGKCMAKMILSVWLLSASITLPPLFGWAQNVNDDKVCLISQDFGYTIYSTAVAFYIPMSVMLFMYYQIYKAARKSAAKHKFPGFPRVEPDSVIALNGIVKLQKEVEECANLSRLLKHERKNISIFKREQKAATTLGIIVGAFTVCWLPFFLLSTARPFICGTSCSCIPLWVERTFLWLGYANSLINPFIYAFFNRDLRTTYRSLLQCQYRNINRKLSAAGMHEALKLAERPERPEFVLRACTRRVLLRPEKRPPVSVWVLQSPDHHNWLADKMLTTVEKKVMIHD
T2 sequence (P28223 whole entry): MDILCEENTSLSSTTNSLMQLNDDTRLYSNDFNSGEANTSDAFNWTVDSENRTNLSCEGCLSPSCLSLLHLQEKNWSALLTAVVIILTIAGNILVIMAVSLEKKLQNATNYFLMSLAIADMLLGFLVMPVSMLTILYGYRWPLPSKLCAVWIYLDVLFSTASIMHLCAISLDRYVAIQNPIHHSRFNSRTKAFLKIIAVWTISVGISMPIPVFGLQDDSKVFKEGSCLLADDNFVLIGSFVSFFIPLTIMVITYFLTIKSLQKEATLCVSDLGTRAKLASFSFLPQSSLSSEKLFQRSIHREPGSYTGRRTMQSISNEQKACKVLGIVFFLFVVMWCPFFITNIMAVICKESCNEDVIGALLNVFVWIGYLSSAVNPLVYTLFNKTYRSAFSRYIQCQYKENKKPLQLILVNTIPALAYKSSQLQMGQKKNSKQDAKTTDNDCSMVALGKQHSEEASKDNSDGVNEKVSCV
Chain of dopaminergic receptors D3 (P35462 whole entry): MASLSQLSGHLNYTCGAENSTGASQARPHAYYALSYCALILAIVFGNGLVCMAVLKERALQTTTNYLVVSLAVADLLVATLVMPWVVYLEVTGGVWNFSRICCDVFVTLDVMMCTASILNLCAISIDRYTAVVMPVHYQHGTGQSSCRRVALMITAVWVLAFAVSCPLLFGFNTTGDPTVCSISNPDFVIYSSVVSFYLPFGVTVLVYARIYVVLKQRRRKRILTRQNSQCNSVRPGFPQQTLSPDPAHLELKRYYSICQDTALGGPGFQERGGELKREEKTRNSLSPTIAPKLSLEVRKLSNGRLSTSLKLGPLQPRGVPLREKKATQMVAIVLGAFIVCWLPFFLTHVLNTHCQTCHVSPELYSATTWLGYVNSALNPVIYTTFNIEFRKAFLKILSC

As to “3,4-Dichloro-N-[1-[3-(6-fluoro-1,2-benzoxazol-3-yl)propyl]pyrrolidin-3-yl]benzenesulphonamide [Compound 211]”, the “5-HT1A [%]” value in test [1] turned out to be 32%. Further, the “5-HT2A [%]” value on 5-HT2A receptor is 100%. The “5-HT7 [%]” value on 5-HT7 receptor stood at 107%. The “D2 [%]” value in test [2] is 93%. Besides, in test [3], the “D3 [%]” value is recorded as 63%. In addition, the “SERT [%]” value in test [4] is 4%. Moreover, the “α1 [%]” value in test [5] is on record as 90%. Besides, the “5-HT6 [%]” value at 5-HT6 receptor worked out at 92%.
The term inhibition denotes the relative decrease from the control value, in per cent. Consider `O=S(=O)(NC1CCN(CCCc2noc3cc(F)ccc23)C1)c1ccc(F)cc1` (stereo not drawn) [Compound 8, 4-Fluoro-N-[1-[3-(6-fluoro-1,2-benzoxazol-3-yl)propyl]pyrrolidin-3-yl]benzenesulphonamide], for which the inhibition at 1 µM in test [1] was 5%; at 5-HT2A receptor, 97%; at 5-HT7 receptor, 85%; in test [2], 72%; in test [3] it was 18%; in test [4] it was -13%. Besides, the inhibition at 1 µM on 5-HT6 receptor amounted to 64%. Moreover, the “α1 [%]” value in test [5] amounted to 95%.
For the compound `O=S(=O)(NC1CCN(CCCc2noc3cc(F)ccc23)C1)c1cccc(Cl)c1` (stereo not drawn) [Compound 9, 3-Chloro-N-[1-[3-(6-fluoro-1,2-benzoxazol-3-yl)propyl]pyrrolidin-3-yl]benzenesulphonamide], the inhibition at 1 µM worked out at 12% in test [1]; 95% on 5-HT2A receptor; 90% on 5-HT7 receptor; 88% in test [2]; 30% in test [3]; 2% in test [4]. Besides, the inhibition at 1 µM at 5-HT6 receptor was 75%. Also, in test [5], the “α1 [%]” value was determined as 83%.
As to `O=S(=O)(NC1CCN(CCCc2noc3cc(F)ccc23)C1)c1cccc(C(F)(F)F)c1` (stereo not drawn) [Compound 15, N-[1-[3-(6-Fluoro-1,2-benzoxazol-3-yl)propyl]pyrrolidin-3-yl]-3-(trifluoromethyl)benzenesulphonamide], the inhibition at 1 µM in test [1] is 18%; at 5-HT2A receptor, 57%; on 5-HT7 receptor it was 48%; in test [2], 75%; in test [3] it was 14%; in test [4] it was -7%. Further, the inhibition at 1 µM on 5-HT6 receptor came out at 83%. The “α1 [%]” value in test [5] is 89%.
Take `O=S(=O)(NC1CCN(CCCc2noc3cc(F)ccc23)C1)c1cccc(O)c1` (stereo not drawn) [Compound 18, N-[1-[3-(6-Fluoro-1,2-benzoxazol-3-yl)propyl]pyrrolidin-3-yl]-3-hydroxybenzenesulphonamide]: the inhibition at 1 µM in test [1] turned out to be 18%; on 5-HT2A receptor it was 85%; at 5-HT7 receptor, 94%; in test [2], 73%; in test [3], 31%; in test [4] it was 37%. In addition, at 5-HT6 receptor, the inhibition at 1 µM amounted to 59%. For the same compound, the “α1 [%]” value in test [5] came to 98%.
On to `O=S(=O)(NC1CCN(CCCc2noc3cc(F)ccc23)C1)c1ccc(Cl)s1` (stereo not drawn) [Compound 22, 5-Chloro-N-[1-[3-(6-fluoro-1,2-benzoxazol-3-yl)propyl]pyrrolidin-3-yl]thiophene-2-sulphonamide], for which the inhibition at 1 µM in test [1] is 0%; at 5-HT2A receptor it was 95%; on 5-HT7 receptor it was 85%; in test [2], 85%; in test [3], 23%; in test [4], 5%. Also, at 5-HT6 receptor, the inhibition at 1 µM was 72%. For the same compound, in test [5], the “α1 [%]” value is given as 91%.
For the compound `O=S(=O)(NC1CCN(CCCc2noc3cc(F)ccc23)C1)c1ccc2c(c1)OCC2` (stereo not drawn) [Compound 24, N-[1-[3-(6-Fluoro-1,2-benzoxazol-3-yl)propyl]pyrrolidin-3-yl]-2,3-dihydrobenzofuran-6-sulphonamide], the inhibition at 1 µM in test [1] was 19%; at 5-HT2A receptor it was 95%; on 5-HT7 receptor, 82%; in test [2], 94%; in test [3], 52%; in test [4] it was -10%. The inhibition at 1 µM at 5-HT6 receptor is 78%. For the same compound, in test [5], the “α1 [%]” value is recorded as 101%.
On to `O=S(=O)(NC1CCN(CCCc2noc3cc(F)ccc23)C1)c1cnc2ccccn12` (stereo not drawn) [Compound 30, N-[1-[3-(6-Fluoro-1,2-benzoxazol-3-yl)propyl]pyrrolidin-3-yl]imidazo-[1,2-a]pyridine-3-sulphonamide], for which the inhibition at 1 µM in test [1] was 5%; on 5-HT2A receptor it was 95%; on 5-HT7 receptor it was 82%; in test [2] it was 62%; in test [3], -2%; in test [4] it was 36%. Moreover, the inhibition at 1 µM on 5-HT6 receptor worked out at 77%. For the same compound, in test [5], the “α1 [%]” value worked out at 84%.
For the compound `O=S(=O)(NC1CCN(CCCc2noc3cc(F)ccc23)CC1)c1ccc2ccccc2c1` [Compound 35, N-[1-[3-(6-Fluoro-1,2-benzoxazol-3-yl)propyl]-4-piperidine]-naphthalene-2-sulphonamide], in test [1], the “5-HT1A [%]” value is reported as 28%. Also, at 5-HT2A receptor, the “5-HT2A [%]” value stood at 91%. In addition, the “5-HT7 [%]” value at 5-HT7 receptor came to 98%. In addition, the “D2 [%]” value in test [2] is listed as 77%. In test [3], the “D3 [%]” value was found to be 56%. Further, the “SERT [%]” value in test [4] worked out at 29%. Also, in test [5], the “α1 [%]” value is given as 99%. Further, the “5-HT6 [%]” value at 5-HT6 receptor is on record as 97%.
On to `Cc1cccc(S(=O)(=O)NCC2CCN(CCCc3noc4cc(F)ccc34)CC2)c1` [Compound 36, N-[[1-[3-(6-Fluoro-1,2-benzoxazol-3-yl)propyl]-4-piperidine]methyl]-3-methylbenzenesulphonamide], for which the “5-HT1A [%]” value in test [1] is given as 18%. The “5-HT2A [%]” value at 5-HT2A receptor was 59%. The “5-HT7 [%]” value at 5-HT7 receptor was 88%. In test [2], the “D2 [%]” value is reported as 57%. The “D3 [%]” value in test [3] came out at 38%. The “SERT [%]” value in test [4] is reported as 0%. Besides, the “α1 [%]” value in test [5] is reported as 103%. In addition, on 5-HT6 receptor, the “5-HT6 [%]” value is reported as 75%.
Turning to `O=S(=O)(NCC1CCN(CCCc2noc3cc(F)ccc23)CC1)c1cccc2ccccc12` [Compound 37, N-[[1-[3-(6-Fluoro-1,2-benzoxazol-3-yl)propyl]-4-piperidine]methyl]-naphthalene-1-sulphonamide], the “5-HT1A [%]” value in test [1] amounted to 29%. The “5-HT2A [%]” value at 5-HT2A receptor stood at 56%. Further, the “5-HT7 [%]” value on 5-HT7 receptor was 94%. Further, the “D2 [%]” value in test [2] turned out to be 83%. The “D3 [%]” value in test [3] was 66%. In test [4], the “SERT [%]” value came out at 30%. Also, the “α1 [%]” value in test [5] was determined as 96%. In addition, the “5-HT6 [%]” value on 5-HT6 receptor is 97%.
For the compound `O=S(=O)(NCC1CCN(CCCc2noc3cc(F)ccc23)CC1)c1ccc2ccccc2c1` [Compound 38, N-[[1-[3-(6-Fluoro-1,2-benzoxazol-3-yl)propyl]-4-piperidine]methyl]-naphthalene-2-sulphonamide], in test [1], the “5-HT1A [%]” value turned out to be 25%. Also, the “5-HT2A [%]” value on 5-HT2A receptor is reported as 82%. Also, at 5-HT7 receptor, the “5-HT7 [%]” value was 94%. In test [2], the “D2 [%]” value was 77%. Further, the “D3 [%]” value in test [3] is 64%. In test [4], the “SERT [%]” value is on record as 17%. Further, the “α1 [%]” value in test [5] is listed as 98%. In addition, the “5-HT6 [%]” value on 5-HT6 receptor was 104%.
